One test deals with T1, SHP2 (Homo sapiens, UniProt Q06124).
T1 construct: Homogeneous Full Length SHP-2 Assay Kit (purchased from BPS Bioscience); purchased BPS Bioscience
T1 sequence (Q06124 1-593): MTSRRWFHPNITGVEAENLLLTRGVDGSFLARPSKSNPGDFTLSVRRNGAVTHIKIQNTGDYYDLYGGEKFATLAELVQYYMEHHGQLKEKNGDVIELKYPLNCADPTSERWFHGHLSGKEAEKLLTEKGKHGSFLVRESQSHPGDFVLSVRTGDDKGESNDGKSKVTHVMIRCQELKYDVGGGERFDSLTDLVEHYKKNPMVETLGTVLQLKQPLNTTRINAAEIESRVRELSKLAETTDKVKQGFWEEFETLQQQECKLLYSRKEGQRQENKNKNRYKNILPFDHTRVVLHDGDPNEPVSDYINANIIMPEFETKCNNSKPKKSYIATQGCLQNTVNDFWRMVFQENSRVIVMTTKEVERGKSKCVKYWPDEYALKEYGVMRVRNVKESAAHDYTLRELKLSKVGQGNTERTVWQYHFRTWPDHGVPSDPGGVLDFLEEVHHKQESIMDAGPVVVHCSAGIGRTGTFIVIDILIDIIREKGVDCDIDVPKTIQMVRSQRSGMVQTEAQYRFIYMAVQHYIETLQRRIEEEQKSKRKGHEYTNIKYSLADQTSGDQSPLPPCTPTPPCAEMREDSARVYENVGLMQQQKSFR
Put plainly: SHP2 in-vitro enzymology experiment (Homogeneous Full Length SHP-2 Assay Kit, DiFMUP substrate). The following applies: 60 min pre-incubation, 30 min reaction at 25° C. It is filed as biochemical. As for the experimental part:
Experimental materials: Homogeneous Full Length SHP-2 Assay Kit (purchased from BPS Bioscience) and NIVO multimode microplate reader.
Preparation of 1× buffer (ready-to-use): 5× buffer was diluted with deionized water to give 1× buffer, which was then placed on ice for later use.
Each test compound was diluted with 100% DMSO to 100 μM as the first concentration, and then diluted in a 4-fold gradient to the 8th concentration (i.e., from 100 μM to 6.1 nM) using a multi-channel pipette. Each gradient of the test compound was diluted with 1× buffer to prepare a working solution with 10% DMSO. The resulting solution was then added to the corresponding wells of a plate at 5 μL/well, with duplicate wells set up. The plate was then centrifuged at 1000 rpm for 1 min.
18 μL of a prepared reaction mixed solution (containing 12.25 μL of deionized water, 5 μL of 5× buffer; 0.25 μL of SHP-2 substrate polypeptide (100 μM), and 0.5 μL of DTT (250 mM)) was added to each well. The plate was then centrifuged at 1000 rpm for 1 min.
An SHP-2 enzyme was diluted to 0.1 ng/μL with 1× buffer. The resulting solution was added to the corresponding wells at 2 μL/well, and 2 μL of 1× buffer and […] were added to each negative control well. This step was performed on ice. The reaction system was then incubated at 25° C. for 60 min for compound pre-incubation.
After the compound pre-incubation was completed, 25 μL of a substrate working solution (containing 19.45 μL of deionized water, 5 μL of 5× buffer; 0.5 μL of DTT (250 mM), and 0.05 μL of SHP-2 Substrate (DiFMUP) (10 mM)) was added to each well, and the reaction system was allowed to react at 25° C. for 30 min. At that time, the final concentration gradient of the compound ranged from 1 μM to 0.061 nM. After the reaction was completed, the fluorescence values were read using the NIVO multimode microplate reader, with an excitation wavelength of 360 nm and an emission wavelength of 460 nm.
Detection of compound background reading values: Each gradient of the test compound diluted with 100% DMSO was added to a new compound plate at 5 μL/well, and then 1× buffer was added at 45 μL/well to achieve a 10-fold dilution to prepare a working solution with 10% DMSO. Next, the compound working solution was added to the detection plate at 5 μL/well, and then 1× buffer was added at 45 μL/well to achieve another 10-fold dilution, bringing the final concentration of DMSO to 1%. The plate was then centrifuged at 1000 rpm for 1 min. The fluorescence values were read using the multimode microplate reader, with an excitation wavelength of 360 nm and an emission wavelength of 460 nm.
The original data were converted to inhibition rates and the IC50 values were obtained by curve fitting using a four-parameter method.

The subject of test [1] is ERK phosphorylation in H358 cells. Put plainly: Inhibitory activity against ERK phosphorylation in H358 cells (HTRF Phospho-ERK1/2 kit). It is filed as cell-based. To be noted: Homo sapiens, NCI-H358; starved H358 cells, 1 h compound incubation; read-out: H358 cell ERK phosphorylation IC50. As for the experimental part:
H358 cells purchased from Nanjing Cobioer Biosciences Co., Ltd., 1640 medium purchased from Biological industries, fetal bovine serum purchased from Biosera, and Advanced Phospho-ERK1/2 (THR202/TYR204) KIT purchased from Cisbio.
• 1. H358 cells were plated in a transparent 96-well cell culture plate, with 80 μL of cell suspension per well, each well containing 10000 H358 cells. The cell plate was incubated in a CO2 incubator at 37° C. overnight. • 2. The cell supernatant was discarded, and a starvation medium (1640+0.02% fetal bovine serum+1% […]) was added at 80 μL/well. The cell plate was then incubated in a CO2 incubator for cell starvation treatment overnight; • 3. Each test compound was diluted with 100% DMSO to 4 mM as the first concentration, and then diluted in a 5-fold gradient to the 8th concentration (i.e., from 4 mM to […]) using a pipette. 1 μL of the compound was then added to 79 μL of cell starvation medium. The mixture was mixed well, and then the compound solution was added to the corresponding wells of the cell plate at 20 μL/well. The cell plate was then put back to the CO2 incubator for incubation for another 1 h. At that time, the concentration of the compound ranged from 10 μM to 0.0256 nM, with the concentration of DMSO being 0.25%. • 4. After the incubation was completed, the cell supernatant was discarded, and a cell lysis buffer was added at 50 μL/well. The plate was then incubated with shaking at room temperature for 30 min. 5. The Phospho-ERK1/2 Eu Cryptate antibody and Phospho-ERK1/2 d2 antibody were diluted in a 20-fold gradient with the Detection buffer. • 6. 16 μL of the cell lysate supernatant from each well was transferred to a new 384-well white microplate, and then 2 μL of the Phospho-ERK1/2 Eu Cryptate antibody dilution and 2 μL of the Phospho-ERK1/2 d2 antibody dilution were added to each well. The mixture was incubated at room temperature for 4 h. • 7. After the incubation was completed, HTRF values were read using a multimode microplate reader, with an excitation wavelength of 320 nm and emission wavelengths of 615 nm and 665 nm.
The original data were converted to inhibition rates and then the IC50 values were obtained by curve fitting using a four-parameter method.

Regarding `Cc1nc(N2CCC3(CC2)Cn2nccc2C3N)c(CO)nc1Sc1ccnc(N)c1Cl` (centres unmarked) [Compound 1], the IC50 (usually the midpoint of a concentration-inhibition curve) against SHP2 was 1.73 nM; in test [1] it was 21.2 nM.

In the case of `CNc1nccc(Sc2nc(CO)c(N3CCC4(CC3)Cn3nccc3C4N)nc2C)c1Cl` (centres unmarked) [Compound 2], the IC50 at SHP2 came to 2.87 nM; in test [1], 84.1 nM.

`Cc1nc(N2CCC3(CC2)Cn2nccc2C3N)c(CO)nc1Sc1cccnc1C(F)(F)F` (centres unmarked) [Compound 4]: the IC50 is 2.14 nM on SHP2 and 75.8 nM in test [1].

As for `Cc1nc(N2CCC3(CC2)Cn2nccc2C3N)c(CO)nc1Sc1ccnc(N)c1F` (centres unmarked) [Compound 6], the IC50 turned out to be 3.15 nM against SHP2 and 57.1 nM in test [1].

Source of the values: patent US20240409543A1, “PYRROLOPYRAZOLE SPIRO COMPOUND” (CHIA TAI TIANQING PHARMACEUTICAL GROUP CO., LTD., priority 2021, published 2024).
